Data published in ChEMBL document CHEMBL1150202, “Modified Taxols, 6. Preparation of Water-Soluble Prodrugs of Taxol” (J Nat Prod, 1991).
Converted amounts (≈) assume the structure as drawn.

Columns and labels:
[1] = Cytotoxicity against human A549/VP cells; assay type: functional, cell-based
P388 [2] = test: In vivo cytotoxicity against mouse P388 cells at 12 mg/kg, ip, scheduled Q01D for 5 days relative to control; assay type: functional
P388 [3] = test: In vivo cytotoxicity against mouse P388 cells at 24 mg/kg, ip, scheduled Q01D for 5 days relative to control; assay type: functional
P388 [4] = test: In vivo cytotoxicity against mouse P388 cells at 3 mg/kg, ip, scheduled Q01D for 5 days relative to control; assay type: functional
P388 [5] = test: In vivo cytotoxicity against mouse P388 cells at 6 mg/kg, ip, scheduled Q01D for 5 days relative to control; assay type: functional
A549 = test: Cytotoxicity against human A549 cells; assay type: functional, cell-based
HCT-116 = test: Cytotoxicity against human HCT116 cells; assay type: functional, cell-based
[6] = Cytotoxicity against human HCT/VP35 cells; assay type: functional, cell-based
B16 = test: Cytotoxicity against mouse B16 cells grown in PRIM medium; assay type: functional, cell-based
P388 [7] = test: In vivo cytotoxicity against mouse P388 cells at 48 mg/kg, ip, scheduled Q01D for 5 days relative to control; assay type: functional
P388 [8] = test: In vivo cytotoxicity against mouse P388 cells at 8 mg/kg, ip, scheduled Q01D for 5 days relative to control; assay type: functional
P388 [9] = test: In vivo cytotoxicity against mouse P388 cells at 4 mg/kg, ip, scheduled Q01D for 5 days relative to control; assay type: functional
P388 [10] = test: In vivo cytotoxicity against mouse P388 cells at 32 mg/kg, ip, scheduled Q01D for 5 days relative to control; assay type: functional
P388 [11] = test: In vivo cytotoxicity against mouse P388 cells at 16 mg/kg, ip, scheduled Q01D for 5 days relative to control; assay type: functional
P388 [12] = test: In vivo cytotoxicity against mouse P388 cells at 64 mg/kg, ip, scheduled Q01D for 5 days relative to control; assay type: functional
P388 [13] = test: In vivo cytotoxicity against mouse P388 cells at 5 mg/kg, ip, scheduled Q01D for 5 days relative to control; assay type: functional
P388 [14] = test: In vivo cytotoxicity against mouse P388 cells at 20 mg/kg, ip, scheduled Q01D for 5 days relative to control; assay type: functional
P388 [15] = test: In vivo cytotoxicity against mouse P388 cells at 10 mg/kg, ip, scheduled Q01D for 5 days relative to control; assay type: functional
P388 [16] = test: In vivo cytotoxicity against mouse P388 cells at 40 mg/kg, ip, scheduled Q01D for 5 days relative to control; assay type: functional
P388 [17] = test: In vivo cytotoxicity against mouse P388 cells at 2.5 mg/kg, ip, scheduled Q01D for 5 days relative to control; assay type: functional

SMILES	IC50 [1] [mg/L]	T/C (P388 [2]) [%]	T/C (P388 [3]) [%]	T/C (P388 [4]) [%]	T/C (P388 [5]) [%]	IC50 (A549) [mg/L]	IC50 (HCT-116) [mg/L]	IC50 [6] [mg/L]	IC50 (B16) [mg/L]	T/C (P388 [7]) [%]	T/C (P388 [8]) [%]	T/C (P388 [9]) [%]	T/C (P388 [10]) [%]	T/C (P388 [11]) [%]	T/C (P388 [12]) [%]	T/C (P388 [13]) [%]	T/C (P388 [14]) [%]	T/C (P388 [15]) [%]	T/C (P388 [16]) [%]	T/C (P388 [17]) [%]
CC(=O)O[C@H]1C(=O)[C@@]2(C)[C@H]([C@H](OC(=O)c3ccccc3)[C@]3(O)C[C@H](OC(=O)[C@H](OC(=O)CCC(=O)NCCCS(=O)(=O)[O-])[C@@H](NC(=O)c4ccccc4)c4ccccc4)C(C)=C1C3(C)C)[C@]1(OC(C)=O)CO[C@@H]1C[C@@H]2O.[Na+]	0.11	118	123	109	114	0.19	< 0.02	0.04	< 0.02	127										
CC(=O)O[C@H]1C(=O)[C@@]2(C)[C@H]([C@H](OC(=O)c3ccccc3)[C@]3(O)C[C@H](OC(=O)[C@H](OC(=O)CCC(=O)NCCS(=O)(=O)[O-])[C@@H](NC(=O)c4ccccc4)c4ccccc4)C(C)=C1C3(C)C)[C@]1(OC(C)=O)CO[C@@H]1C[C@@H]2O.[Na+]	< 0.02					0.09	< 0.02	0.03	< 0.02		114	109	136	127	132					
CC(=O)O[C@H]1C(=O)[C@@]2(C)[C@H]([C@H](OC(=O)c3ccccc3)[C@]3(O)C[C@H](OC(=O)[C@H](OC(=O)CCS(=O)(=O)[O-])[C@@H](NC(=O)c4ccccc4)c4ccccc4)C(C)=C1C3(C)C)[C@]1(OC(C)=O)CO[C@@H]1C[C@@H]2O.[Na+]	0.19					0.4	< 0.02	0.05	0.02							123	136	127	136	109
CC(=O)O[C@H]1C(=O)[C@@]2(C)[C@H]([C@H](OC(=O)c3ccccc3)[C@]3(O)C[C@H](OC(=O)[C@H](O)[C@@H](NC(=O)c4ccccc4)c4ccccc4)C(C)=C1C3(C)C)[C@]1(OC(C)=O)CO[C@@H]1C[C@@H]2O [PACLITAXEL]	< 0.02					4.79 (≈ 5.61 µM)	< 0.02	< 0.02	< 0.02		132	150		155						
